#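 Step 1: Grow cells in 96-well plates. Step 2: Expose to compound for 48 hours at 5 concentrations. Step 3: Interpolate endpoints linearly; if unreached, use highest concentration. Definition used: TGI = concentration required for complete inhibition of growth.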
# Key:
# Test in all cases: NCI anticancer screen, dose series, 48 h
# 786-0 renal = system: 786-0 renal
# A498 renal = system: A498 renal
# A549 NSCLC = system: A549 NSCLC
# ACHN renal = system: ACHN renal
# BT-549 breast = system: BT-549 breast
# CAKI-1 renal = system: CAKI-1 renal
# CCRF-CEM leukemia = system: CCRF-CEM leukemia
# COLO 205 colon = system: COLO 205 colon
# DU-145 prostate = system: DU-145 prostate
# EKVX NSCLC = system: EKVX NSCLC
# HCC-2998 colon = system: HCC-2998 colon
# HCT-116 colon = system: HCT-116 colon
# HCT-15 colon = system: HCT-15 colon
# HL-60(TB) leukemia = system: HL-60(TB) leukemia
# HOP-62 NSCLC = system: HOP-62 NSCLC
# HOP-92 NSCLC = system: HOP-92 NSCLC
# HS 578T breast = system: HS 578T breast
# HT29 colon = system: HT29 colon
# IGROV1 ovarian = system: IGROV1 ovarian
# K-562 leukemia = system: K-562 leukemia
# KM12 colon = system: KM12 colon
# LOX IMVI melanoma = system: LOX IMVI melanoma
# M14 melanoma = system: M14 melanoma
# MALME-3M melanoma = system: MALME-3M melanoma
# MCF7 breast = system: MCF7 breast
# MDA-MB-231 breast = system: MDA-MB-231 breast
# MDA-MB-435 = system: MDA-MB-435
# MDA-N = system: MDA-N
# MOLT-4 leukemia = system: MOLT-4 leukemia
# NCI-H226 lung = system: NCI-H226 lung
# NCI-H23 lung = system: NCI-H23 lung
# NCI-H460 lung = system: NCI-H460 lung
# NCI-H522 lung = system: NCI-H522 lung
# NCI/ADR-RES ovarian = system: NCI/ADR-RES ovarian
# OVCAR-3 ovarian = system: OVCAR-3 ovarian
# OVCAR-4 ovarian = system: OVCAR-4 ovarian
# OVCAR-5 ovarian = system: OVCAR-5 ovarian
# OVCAR-8 ovarian = system: OVCAR-8 ovarian
# PC-3 prostate = system: PC-3 prostate
# RPMI-8226 leukemia = system: RPMI-8226 leukemia
# RXF 393 renal = system: RXF 393 renal
# SF-268 CNS = system: SF-268 CNS
# SF-295 CNS = system: SF-295 CNS
# SF-539 CNS = system: SF-539 CNS
# SK-MEL-2 melanoma = system: SK-MEL-2 melanoma
# SK-MEL-28 melanoma = system: SK-MEL-28 melanoma
# SK-MEL-5 melanoma = system: SK-MEL-5 melanoma
# SN12C renal = system: SN12C renal
# SNB-19 CNS = system: SNB-19 CNS
# SNB-75 CNS = system: SNB-75 CNS
# SR leukemia = system: SR leukemia
# SW-620 colon = system: SW-620 colon
# T-47D breast = system: T-47D breast
# TK-10 renal = system: TK-10 renal
# U251 CNS = system: U251 CNS
# UACC-257 melanoma = system: UACC-257 melanoma
# UACC-62 melanoma = system: UACC-62 melanoma
# UO-31 renal = system: UO-31 renal
# SK-OV-3 ovarian = system: SK-OV-3 ovarian
smiles,measurement,setting,value
CC(C)c1cc2c(c(O)c1O)[C@@]1(C)CCCC(C)(C)C1=C(O)C2,TGI,786-0 renal,11.8 µM
same,TGI,A498 renal,3.19 µM
same,TGI,A549 NSCLC,5.73 µM
same,TGI,ACHN renal,5.39 µM
same,TGI,BT-549 breast,4.22 µM
same,TGI,CAKI-1 renal,2.84 µM
same,TGI,CCRF-CEM leukemia,2.12 µM
same,TGI,COLO 205 colon,8.06 µM
same,TGI,DU-145 prostate,> 50 µM
same,TGI,EKVX NSCLC,3.56 µM
same,TGI,HCC-2998 colon,2.76 µM
same,TGI,HCT-116 colon,> 50 µM
same,TGI,HCT-15 colon,6.77 µM
same,TGI,HL-60(TB) leukemia,3.27 µM
same,TGI,HOP-62 NSCLC,13.4 µM
same,TGI,HOP-92 NSCLC,2.32 µM
same,TGI,HS 578T breast,13.4 µM
same,TGI,HT29 colon,16.1 µM
same,TGI,IGROV1 ovarian,2.79 µM
same,TGI,K-562 leukemia,4.13 µM
same,TGI,KM12 colon,5.78 µM
same,TGI,LOX IMVI melanoma,3.14 µM
same,TGI,M14 melanoma,13.4 µM
same,TGI,MALME-3M melanoma,3.36 µM
same,TGI,MCF7 breast,2.85 µM
same,TGI,MDA-MB-231 breast,> 50 µM
same,TGI,MDA-MB-435,2.77 µM
same,TGI,MDA-N,6.77 µM
same,TGI,MOLT-4 leukemia,2.99 µM
same,TGI,NCI-H226 lung,> 50 µM
same,TGI,NCI-H23 lung,6.8 µM
same,TGI,NCI-H460 lung,5.89 µM
same,TGI,NCI-H522 lung,3.06 µM
same,TGI,NCI/ADR-RES ovarian,2 µM
same,TGI,OVCAR-3 ovarian,5.26 µM
same,TGI,OVCAR-4 ovarian,4.55 µM
same,TGI,OVCAR-5 ovarian,9.03 µM
same,TGI,OVCAR-8 ovarian,6.99 µM
same,TGI,PC-3 prostate,3.51 µM
same,TGI,RPMI-8226 leukemia,2.15 µM
same,TGI,RXF 393 renal,2.96 µM
same,TGI,SF-268 CNS,5.84 µM
same,TGI,SF-295 CNS,4.38 µM
same,TGI,SF-539 CNS,1.89 µM
same,TGI,SK-MEL-2 melanoma,2.65 µM
same,TGI,SK-MEL-28 melanoma,8.69 µM
same,TGI,SK-MEL-5 melanoma,2.32 µM
same,TGI,SN12C renal,> 50 µM
same,TGI,SNB-19 CNS,9.32 µM
same,TGI,SNB-75 CNS,2.56 µM
same,TGI,SR leukemia,3.21 µM
same,TGI,SW-620 colon,5.4 µM
same,TGI,T-47D breast,20 µM
same,TGI,TK-10 renal,24.2 µM
same,TGI,U251 CNS,4.54 µM
same,TGI,UACC-257 melanoma,3.37 µM
same,TGI,UACC-62 melanoma,> 50 µM
same,TGI,UO-31 renal,3.95 µM
Cc1n[nH]c(=O)n1/N=C/c1ccc([N+](=O)[O-])cc1,TGI,786-0 renal,> 100 µM
same,TGI,A498 renal,> 100 µM
same,TGI,A549 NSCLC,> 100 µM
same,TGI,ACHN renal,> 100 µM
same,TGI,BT-549 breast,> 100 µM
same,TGI,CAKI-1 renal,> 100 µM
same,TGI,CCRF-CEM leukemia,> 100 µM
same,TGI,COLO 205 colon,> 100 µM
same,TGI,DU-145 prostate,> 100 µM
same,TGI,EKVX NSCLC,> 100 µM
same,TGI,HCC-2998 colon,> 100 µM
same,TGI,HCT-116 colon,> 100 µM
same,TGI,HCT-15 colon,> 100 µM
same,TGI,HL-60(TB) leukemia,> 100 µM
same,TGI,HOP-62 NSCLC,> 100 µM
same,TGI,HOP-92 NSCLC,> 100 µM
same,TGI,HS 578T breast,> 100 µM
same,TGI,HT29 colon,> 100 µM
same,TGI,K-562 leukemia,> 100 µM
same,TGI,KM12 colon,> 100 µM
same,TGI,LOX IMVI melanoma,> 100 µM
same,TGI,MALME-3M melanoma,> 100 µM
same,TGI,MCF7 breast,> 100 µM
same,TGI,MDA-MB-231 breast,> 100 µM
same,TGI,MDA-MB-435,> 100 µM
same,TGI,MDA-N,> 100 µM
same,TGI,MOLT-4 leukemia,> 100 µM
same,TGI,NCI-H226 lung,> 100 µM
same,TGI,NCI-H23 lung,> 100 µM
same,TGI,NCI-H460 lung,> 100 µM
same,TGI,NCI-H522 lung,> 100 µM
same,TGI,NCI/ADR-RES ovarian,> 100 µM
same,TGI,OVCAR-3 ovarian,> 100 µM
same,TGI,OVCAR-4 ovarian,> 100 µM
same,TGI,OVCAR-5 ovarian,> 100 µM
same,TGI,OVCAR-8 ovarian,> 100 µM
same,TGI,PC-3 prostate,> 100 µM
same,TGI,RPMI-8226 leukemia,> 100 µM
same,TGI,RXF 393 renal,> 100 µM
same,TGI,SF-268 CNS,> 100 µM
same,TGI,SF-295 CNS,> 100 µM
same,TGI,SF-539 CNS,> 100 µM
same,TGI,SK-MEL-2 melanoma,> 100 µM
same,TGI,SK-MEL-28 melanoma,> 100 µM
same,TGI,SK-MEL-5 melanoma,> 100 µM
same,TGI,SN12C renal,> 100 µM
same,TGI,SNB-75 CNS,> 100 µM
same,TGI,SR leukemia,> 100 µM
same,TGI,SW-620 colon,> 100 µM
same,TGI,T-47D breast,> 100 µM
same,TGI,TK-10 renal,> 100 µM
same,TGI,U251 CNS,> 100 µM
same,TGI,UACC-257 melanoma,> 100 µM
same,TGI,UACC-62 melanoma,> 100 µM
same,TGI,UO-31 renal,> 100 µM
CN1CCN(CC(=O)N2CCCn3c2nc2ccccc2c3=O)CC1,TGI,786-0 renal,> 100 µM
same,TGI,A498 renal,> 100 µM
same,TGI,A549 NSCLC,> 100 µM
same,TGI,ACHN renal,> 100 µM
same,TGI,BT-549 breast,> 100 µM
same,TGI,CAKI-1 renal,> 100 µM
same,TGI,CCRF-CEM leukemia,> 100 µM
same,TGI,COLO 205 colon,> 100 µM
same,TGI,DU-145 prostate,> 100 µM
same,TGI,EKVX NSCLC,> 100 µM
same,TGI,HCC-2998 colon,> 100 µM
same,TGI,HCT-116 colon,> 100 µM
same,TGI,HCT-15 colon,> 100 µM
same,TGI,HL-60(TB) leukemia,> 100 µM
same,TGI,HOP-62 NSCLC,> 100 µM
same,TGI,HOP-92 NSCLC,> 100 µM
same,TGI,HS 578T breast,> 100 µM
same,TGI,HT29 colon,> 100 µM
same,TGI,IGROV1 ovarian,> 100 µM
same,TGI,K-562 leukemia,> 100 µM
same,TGI,KM12 colon,> 100 µM
same,TGI,LOX IMVI melanoma,> 100 µM
same,TGI,M14 melanoma,> 100 µM
same,TGI,MALME-3M melanoma,> 100 µM
same,TGI,MCF7 breast,> 100 µM
same,TGI,MDA-MB-231 breast,> 100 µM
same,TGI,MDA-MB-435,> 100 µM
same,TGI,MDA-N,> 100 µM
same,TGI,MOLT-4 leukemia,> 100 µM
same,TGI,NCI-H226 lung,> 100 µM
same,TGI,NCI-H23 lung,> 100 µM
same,TGI,NCI-H460 lung,> 100 µM
same,TGI,NCI-H522 lung,> 100 µM
same,TGI,NCI/ADR-RES ovarian,> 100 µM
same,TGI,OVCAR-3 ovarian,> 100 µM
same,TGI,OVCAR-4 ovarian,> 100 µM
same,TGI,OVCAR-5 ovarian,> 100 µM
same,TGI,OVCAR-8 ovarian,> 100 µM
same,TGI,PC-3 prostate,> 100 µM
same,TGI,RPMI-8226 leukemia,> 100 µM
same,TGI,SF-268 CNS,> 100 µM
same,TGI,SF-295 CNS,> 100 µM
same,TGI,SF-539 CNS,> 100 µM
same,TGI,SK-MEL-2 melanoma,> 100 µM
same,TGI,SK-MEL-5 melanoma,> 100 µM
same,TGI,SK-OV-3 ovarian,> 100 µM
same,TGI,SN12C renal,> 100 µM
same,TGI,SNB-19 CNS,> 100 µM
same,TGI,SNB-75 CNS,> 100 µM
same,TGI,SR leukemia,> 100 µM
same,TGI,SW-620 colon,> 100 µM
same,TGI,T-47D breast,> 100 µM
same,TGI,TK-10 renal,> 100 µM
same,TGI,U251 CNS,> 100 µM
same,TGI,UACC-257 melanoma,> 100 µM
same,TGI,UACC-62 melanoma,> 100 µM
same,TGI,UO-31 renal,> 100 µM

# From PubChem BioAssay (NCI)
